Assays:
Assay in all cases: relative viability (nuclei count vs DMSO), 5 days (fraction); higher = more cells survive
[1] = system: HARA
Outline: (§1)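 Each reported value is a median over duplicate plates. It expresses relative viability: treated-well nuclei count divided by vehicle-well nuclei count. Lung cancer cell lines in 1536-well plates were dosed by pin tool a day after seeding, alone with one drug or with a fixed anchor-drug dose plus five library-drug doses (not always all listed) in √10 steps, and nuclei were counted after 5 days.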

[2] = system: NCI-H2087
Outline: as §1

[3] = system: NCI-H522
Outline: as §1

[4] = system: NCI-H2126
Outline: as §1

[5] = system: NCI-H647
Outline: as §1

[6] = system: EMC-BAC-2
Outline: as §1

[7] = system: LOU-NH91
Outline: as §1

[8] = system: NCI-H2009
Outline: as §1

[9] = system: NCI-H2347
Outline: as §1

[10] = system: LCLC-103H
Outline: as §1

[11] = system: NCI-H727
Outline: as §1

[12] = system: 201T
Outline: as §1

[13] = system: NCI-H596
Outline: as §1

[14] = system: NCI-H1395
Outline: as §1

[15] = system: NCI-H1993
Outline: as §1

[16] = system: NCI-H3122
Outline: as §1

[17] = system: NCI-H1666
Outline: as §1

[18] = system: HCC-44
Outline: as §1

[19] = system: BEN
Outline: as §1

[20] = system: NCI-H441
Outline: as §1

[21] = system: NCI-H838
Outline: as §1

[22] = system: NCI-H23
Outline: as §1

[23] = system: NCI-H650
Outline: as §1

[24] = system: NCI-H2023
Outline: as §1

SMILES: Clc1ccc(Nc2nnc(Cc3ccncc3)c3ccccc23)cc1 [Vatalanib] + CCNC(=O)c1noc(-c2cc(C(C)C)c(O)cc2O)c1-c1ccc(CN2CCOCC2)cc1 [Luminespib] (partner 0.01 µM)
- relative viability ([1]; first compound 0.04 µM): 0.682
- relative viability ([1]; first compound 0.1265 µM): 0.617
- relative viability ([1]; first compound 0.4 µM): 0.669
- relative viability ([1]; first compound 1.265 µM): 0.738
- relative viability ([1]; first compound 4 µM): 0.591
- relative viability ([2]; first compound 0.04 µM): 0.152
- relative viability ([2]; first compound 0.1265 µM): 0.157
- relative viability ([2]; first compound 0.4 µM): 0.184
- relative viability ([2]; first compound 1.265 µM): 0.173
- relative viability ([2]; first compound 4 µM): 0.159
- relative viability ([3]; first compound 0.04 µM): 1.02
- relative viability ([3]; first compound 0.1265 µM): 1.23
- relative viability ([3]; first compound 0.4 µM): 1.2
- relative viability ([3]; first compound 1.265 µM): 1.15
- relative viability ([3]; first compound 4 µM): 1.1
- relative viability ([4]; first compound 0.04 µM): 0.925
- relative viability ([4]; first compound 0.1265 µM): 0.864
- relative viability ([4]; first compound 0.4 µM): 0.919
- relative viability ([4]; first compound 1.265 µM): 0.94
- relative viability ([4]; first compound 4 µM): 0.908
- relative viability ([5]; first compound 0.04 µM): 0.128
- relative viability ([5]; first compound 0.1265 µM): 0.0977
- relative viability ([5]; first compound 0.4 µM): 0.169
- relative viability ([5]; first compound 1.265 µM): 0.187
- relative viability ([5]; first compound 4 µM): 0.138
- relative viability ([6]; first compound 0.04 µM): 1.16
- relative viability ([6]; first compound 0.1265 µM): 1.13
- relative viability ([6]; first compound 0.4 µM): 1.34
- relative viability ([6]; first compound 1.265 µM): 1.09
- relative viability ([6]; first compound 4 µM): 1.15
- relative viability ([7]; first compound 0.04 µM): 0.371
- relative viability ([7]; first compound 0.1265 µM): 0.331
- relative viability ([7]; first compound 1.265 µM): 0.368
- relative viability ([7]; first compound 4 µM): 0.315
- relative viability ([8]; first compound 0.04 µM): 1.11
- relative viability ([8]; first compound 0.1265 µM): 0.983
- relative viability ([8]; first compound 0.4 µM): 1.06
- relative viability ([8]; first compound 1.265 µM): 0.962
- relative viability ([8]; first compound 4 µM): 1.04
- relative viability ([9]; first compound 0.04 µM): 0.416
- relative viability ([9]; first compound 0.1265 µM): 0.425
- relative viability ([9]; first compound 0.4 µM): 0.254
- relative viability ([9]; first compound 1.265 µM): 0.549
- relative viability ([9]; first compound 4 µM): 0.509
- relative viability ([10]; first compound 0.04 µM): 0.961
- relative viability ([10]; first compound 0.1265 µM): 0.878
- relative viability ([10]; first compound 0.4 µM): 0.967
- relative viability ([10]; first compound 1.265 µM): 0.969
- relative viability ([10]; first compound 4 µM): 1
- relative viability ([11]; first compound 0.04 µM): 0.339
- relative viability ([11]; first compound 0.1265 µM): 0.289
- relative viability ([11]; first compound 0.4 µM): 0.329
- relative viability ([11]; first compound 1.265 µM): 0.635
- relative viability ([11]; first compound 4 µM): 0.392
- relative viability ([12]; first compound 0.04 µM): 1.07
- relative viability ([12]; first compound 0.1265 µM): 1.05
- relative viability ([12]; first compound 0.4 µM): 1.13
- relative viability ([12]; first compound 1.265 µM): 1.04
- relative viability ([12]; first compound 4 µM): 1.13
- relative viability ([13]; first compound 0.04 µM): 0.955
- relative viability ([13]; first compound 0.1265 µM): 0.941
- relative viability ([13]; first compound 0.4 µM): 0.953
- relative viability ([13]; first compound 1.265 µM): 1.01
- relative viability ([13]; first compound 4 µM): 1.19
- relative viability ([14]; first compound 0.04 µM): 0.668
- relative viability ([14]; first compound 0.1265 µM): 0.65
- relative viability ([14]; first compound 0.4 µM): 0.834
- relative viability ([14]; first compound 1.265 µM): 0.66
- relative viability ([14]; first compound 4 µM): 0.674
- relative viability ([15]; first compound 0.04 µM): 0.955
- relative viability ([15]; first compound 0.1265 µM): 0.958
- relative viability ([15]; first compound 0.4 µM): 0.865
- relative viability ([15]; first compound 1.265 µM): 0.71
- relative viability ([15]; first compound 4 µM): 0.82
- relative viability ([16]; first compound 0.04 µM): 0.0962
- relative viability ([16]; first compound 0.1265 µM): 0.0894
- relative viability ([16]; first compound 0.4 µM): 0.0775
- relative viability ([16]; first compound 1.265 µM): 0.0975
- relative viability ([16]; first compound 4 µM): 0.0766
- relative viability ([17]; first compound 0.04 µM): 0.986
- relative viability ([17]; first compound 0.1265 µM): 0.991
- relative viability ([17]; first compound 0.4 µM): 0.996
- relative viability ([17]; first compound 1.265 µM): 1.01
- relative viability ([17]; first compound 4 µM): 1.04
- relative viability ([18]; first compound 0.04 µM): 1.24
- relative viability ([18]; first compound 0.1265 µM): 1.01
- relative viability ([18]; first compound 0.4 µM): 0.953
- relative viability ([18]; first compound 1.265 µM): 0.927
- relative viability ([18]; first compound 4 µM): 1.05
- relative viability ([19]; first compound 0.04 µM): 0.218
- relative viability ([19]; first compound 0.1265 µM): 0.265
- relative viability ([19]; first compound 0.4 µM): 0.514
- relative viability ([19]; first compound 1.265 µM): 0.399
- relative viability ([19]; first compound 4 µM): 0.404
- relative viability ([20]; first compound 0.04 µM): 0.367
- relative viability ([20]; first compound 0.1265 µM): 0.251
- relative viability ([20]; first compound 0.4 µM): 0.382
- relative viability ([20]; first compound 1.265 µM): 0.377
- relative viability ([20]; first compound 4 µM): 0.354
- relative viability ([21]; first compound 0.04 µM): 0.326
- relative viability ([21]; first compound 0.1265 µM): 0.267
- relative viability ([21]; first compound 0.4 µM): 0.244
- relative viability ([21]; first compound 1.265 µM): 0.305
- relative viability ([21]; first compound 4 µM): 0.378
- relative viability ([22]; first compound 0.04 µM): 0.229
- relative viability ([22]; first compound 0.1265 µM): 0.213
- relative viability ([22]; first compound 0.4 µM): 0.227
- relative viability ([22]; first compound 1.265 µM): 0.19
- relative viability ([22]; first compound 4 µM): 0.205
- relative viability ([23]; first compound 0.04 µM): 0.821
- relative viability ([23]; first compound 0.1265 µM): 0.628
- relative viability ([23]; first compound 1.265 µM): 0.736
- relative viability ([23]; first compound 4 µM): 0.781
- relative viability ([24]; first compound 0.04 µM): 0.58
- relative viability ([24]; first compound 0.1265 µM): 0.66
- relative viability ([24]; first compound 0.4 µM): 0.762
- relative viability ([24]; first compound 1.265 µM): 0.537
- relative viability ([24]; first compound 4 µM): 0.688

Source: the supplement of paper PMC10307832
